Laboratory results published in US20100016290A1, “AMORPHOUS POLYMORPH OF BAZEDOXIFENE ACETATE” (priority 2008, published 2010).

Legend:
[1] = Form C on ATR-IR sensor in ethanol vapor atmosphere; assay type: physicochemical; conditions: room temperature
Source text: IR spectra (see, e.g. FIG. 2) were acquired by placing a few milligrams of the powder of the sample on a diamond sensor ATR (Attenuated Total Reflection) probe (Dicomp) using a React-IR 4000 system operated at 4 cm^−1 resolution and 128 scans between 650-4000 cm^−1.
Some experiments were executed by creating an ethanol vapor atmosphere around the ATR sensor at room temperature.

[2] = Mortar and pestle trials of Form A under mechanical stress (DSC, XRPD); assay type: physicochemical; conditions: for decrease in the Enthalpy of Fusion (Form A): after 10 min mixing in reaction solvent
Procedure: Mortar and pestle trials were conducted to test the behavior of polymorph Form A under mechanical stress and to test and measure the kinetics of conversion of crystalline Form A to Form B under mechanical stress (possibly via amorphous Form C).

polymorph form present ([1]; after two hours)	transformation of polymorph form ([1]; on ATR sensor)	decrease in the Enthalpy of Fusion (Form A) [2]	amorphous Form C formed under mechanical stress ([2]; confirmed by powder XRD (FIG. 5))	SMILES
only polymorph Form B was present	transform rapidly into polymorph Form B	–	–	Cc1c(-c2ccc(O)cc2)n(Cc2ccc(OCCN3CCCCCC3)cc2)c2ccc(O)cc12 [Form C, 1-[4-(2-azepan-1-yl-ethoxy)-benzyl]-2-(4-hydroxy-phenyl)-3-methyl-1H-indol-5-ol acetic acid]
–	–	About 30%	–	CC(=O)O.Cc1c(-c2ccc(O)cc2)n(Cc2ccc(OCCN3CCCCCC3)cc2)c2ccc(O)cc12 [Sample 7]
–	–	About 50%	significant amount of amorphous Form C	CC(=O)O.Cc1c(-c2ccc(O)cc2)n(Cc2ccc(OCCN3CCCCCC3)cc2)c2ccc(O)cc12 [Sample 8]
